The source of these data is patent publication US12516056B2, “Compounds for inhibition of janus kinase 1” (MANKIND PHARMA LTD., priority 2019, dated 2026).

Structures can show the parent of a compound that is named as a salt.

The target in one assay is T1, Recombinant JAK1 (Homo sapiens, UniProt P23458).
T1 construct: purchased Carna Biosciences
The assay can be described thus: JAK biochemical assay (LANCE Ultra TR-FRET), JAK1. Conditions: recombinant JAK1, TR-FRET; read-out: Biochemical Assay (μM) JAK1. The gist of the method: (§1)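 Kinase reactions ran in buffer of 50 mM HEPES pH 7.5 with 1 mM EGTA, 10 mM MgCl2, 2 mM DTT and 0.01% Tween-20, using recombinant enzyme. Phosphorylated ULight substrate was detected by TR-FRET, and compound effect expressed as % inhibition against vehicle.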

A further assay concerns the target T2, Recombinant JAK2 (Homo sapiens, UniProt O60674).
T2 construct: purchased Carna Biosciences
The assay can be described thus: JAK biochemical assay (LANCE Ultra TR-FRET), JAK2. Conditions: recombinant JAK2, TR-FRET; read-out: Biochemical Assay (μM) JAK2. The gist of the method: as §1
Background: Time-resolved FRET reads energy transfer from a long-lived donor to a nearby acceptor.

The next assay has as its target T3, Recombinant JAK3 (Homo sapiens, UniProt P52333).
T3 construct: purchased Carna Biosciences
T3 sequence (P52333 1-1124): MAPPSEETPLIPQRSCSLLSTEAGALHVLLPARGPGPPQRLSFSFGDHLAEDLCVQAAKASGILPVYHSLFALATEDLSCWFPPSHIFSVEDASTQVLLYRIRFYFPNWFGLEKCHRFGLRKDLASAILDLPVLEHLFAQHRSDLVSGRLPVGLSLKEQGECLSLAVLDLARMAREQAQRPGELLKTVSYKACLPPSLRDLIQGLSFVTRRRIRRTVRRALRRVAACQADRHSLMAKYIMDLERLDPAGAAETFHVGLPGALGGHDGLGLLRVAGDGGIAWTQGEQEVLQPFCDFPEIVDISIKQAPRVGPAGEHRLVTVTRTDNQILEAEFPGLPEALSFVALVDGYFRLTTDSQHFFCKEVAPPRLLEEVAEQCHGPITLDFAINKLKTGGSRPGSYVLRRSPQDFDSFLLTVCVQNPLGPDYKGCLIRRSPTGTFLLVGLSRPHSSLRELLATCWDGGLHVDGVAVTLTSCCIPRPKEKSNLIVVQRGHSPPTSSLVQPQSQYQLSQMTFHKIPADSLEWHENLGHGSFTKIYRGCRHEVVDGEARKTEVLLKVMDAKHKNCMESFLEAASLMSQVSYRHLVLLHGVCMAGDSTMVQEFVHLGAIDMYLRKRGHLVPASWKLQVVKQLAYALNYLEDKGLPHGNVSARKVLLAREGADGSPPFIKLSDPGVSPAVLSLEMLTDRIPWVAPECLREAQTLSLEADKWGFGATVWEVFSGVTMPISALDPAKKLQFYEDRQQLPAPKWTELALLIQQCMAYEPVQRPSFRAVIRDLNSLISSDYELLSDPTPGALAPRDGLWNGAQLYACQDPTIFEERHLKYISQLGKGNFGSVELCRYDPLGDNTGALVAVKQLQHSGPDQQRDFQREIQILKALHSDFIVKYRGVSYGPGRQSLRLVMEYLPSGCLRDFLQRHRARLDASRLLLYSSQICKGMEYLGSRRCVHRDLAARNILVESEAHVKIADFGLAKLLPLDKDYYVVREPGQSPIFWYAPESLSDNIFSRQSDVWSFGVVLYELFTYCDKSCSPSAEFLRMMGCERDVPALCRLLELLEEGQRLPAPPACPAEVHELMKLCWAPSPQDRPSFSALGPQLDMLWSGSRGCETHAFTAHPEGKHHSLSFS
Put plainly: JAK biochemical assay (LANCE Ultra TR-FRET), JAK3. The following applies: recombinant JAK3, TR-FRET; read-out: Biochemical Assay (μM) JAK3. The gist of the method:
as §1

For another assay, the target named is T4, Recombinant TYK2 (Homo sapiens, UniProt P29597).
T4 construct: purchased Carna Biosciences
T4 sequence (P29597 whole entry): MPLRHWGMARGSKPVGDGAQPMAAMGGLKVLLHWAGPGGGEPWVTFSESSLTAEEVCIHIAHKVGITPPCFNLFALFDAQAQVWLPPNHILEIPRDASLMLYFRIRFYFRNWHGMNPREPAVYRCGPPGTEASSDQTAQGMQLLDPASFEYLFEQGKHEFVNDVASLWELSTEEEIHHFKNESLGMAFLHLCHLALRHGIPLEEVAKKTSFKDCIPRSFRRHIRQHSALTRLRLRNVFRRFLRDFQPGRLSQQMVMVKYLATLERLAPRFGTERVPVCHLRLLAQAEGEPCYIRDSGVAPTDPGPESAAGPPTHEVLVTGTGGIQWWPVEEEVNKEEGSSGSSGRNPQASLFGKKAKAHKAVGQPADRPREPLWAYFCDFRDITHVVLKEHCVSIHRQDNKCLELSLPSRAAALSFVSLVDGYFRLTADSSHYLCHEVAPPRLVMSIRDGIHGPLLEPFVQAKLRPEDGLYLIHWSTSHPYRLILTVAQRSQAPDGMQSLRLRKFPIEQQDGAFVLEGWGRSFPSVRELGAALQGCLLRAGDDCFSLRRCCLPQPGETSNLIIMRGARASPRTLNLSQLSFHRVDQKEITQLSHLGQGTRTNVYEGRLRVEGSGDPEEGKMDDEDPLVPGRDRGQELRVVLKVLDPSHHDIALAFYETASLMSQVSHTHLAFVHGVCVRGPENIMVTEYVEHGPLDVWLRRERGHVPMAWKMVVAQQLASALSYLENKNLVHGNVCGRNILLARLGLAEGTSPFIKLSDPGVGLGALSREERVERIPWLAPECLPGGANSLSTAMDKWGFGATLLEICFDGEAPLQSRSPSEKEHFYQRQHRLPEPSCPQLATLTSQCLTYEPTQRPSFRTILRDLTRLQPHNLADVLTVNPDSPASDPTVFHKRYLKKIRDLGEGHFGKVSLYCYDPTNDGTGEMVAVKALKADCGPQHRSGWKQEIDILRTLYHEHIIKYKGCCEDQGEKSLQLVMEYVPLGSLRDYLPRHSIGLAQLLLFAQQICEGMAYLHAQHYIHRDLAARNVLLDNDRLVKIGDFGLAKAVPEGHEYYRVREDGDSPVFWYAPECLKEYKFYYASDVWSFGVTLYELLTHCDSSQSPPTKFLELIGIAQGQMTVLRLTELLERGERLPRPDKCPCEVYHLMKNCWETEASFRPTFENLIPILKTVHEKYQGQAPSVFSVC
Put plainly: JAK biochemical assay (LANCE Ultra TR-FRET), TYK2. Conditions: recombinant TYK2, TR-FRET; read-out: Biochemical Assay (μM) TYK2. The gist of the method:
as §1

T1 sequence (P23458 whole entry): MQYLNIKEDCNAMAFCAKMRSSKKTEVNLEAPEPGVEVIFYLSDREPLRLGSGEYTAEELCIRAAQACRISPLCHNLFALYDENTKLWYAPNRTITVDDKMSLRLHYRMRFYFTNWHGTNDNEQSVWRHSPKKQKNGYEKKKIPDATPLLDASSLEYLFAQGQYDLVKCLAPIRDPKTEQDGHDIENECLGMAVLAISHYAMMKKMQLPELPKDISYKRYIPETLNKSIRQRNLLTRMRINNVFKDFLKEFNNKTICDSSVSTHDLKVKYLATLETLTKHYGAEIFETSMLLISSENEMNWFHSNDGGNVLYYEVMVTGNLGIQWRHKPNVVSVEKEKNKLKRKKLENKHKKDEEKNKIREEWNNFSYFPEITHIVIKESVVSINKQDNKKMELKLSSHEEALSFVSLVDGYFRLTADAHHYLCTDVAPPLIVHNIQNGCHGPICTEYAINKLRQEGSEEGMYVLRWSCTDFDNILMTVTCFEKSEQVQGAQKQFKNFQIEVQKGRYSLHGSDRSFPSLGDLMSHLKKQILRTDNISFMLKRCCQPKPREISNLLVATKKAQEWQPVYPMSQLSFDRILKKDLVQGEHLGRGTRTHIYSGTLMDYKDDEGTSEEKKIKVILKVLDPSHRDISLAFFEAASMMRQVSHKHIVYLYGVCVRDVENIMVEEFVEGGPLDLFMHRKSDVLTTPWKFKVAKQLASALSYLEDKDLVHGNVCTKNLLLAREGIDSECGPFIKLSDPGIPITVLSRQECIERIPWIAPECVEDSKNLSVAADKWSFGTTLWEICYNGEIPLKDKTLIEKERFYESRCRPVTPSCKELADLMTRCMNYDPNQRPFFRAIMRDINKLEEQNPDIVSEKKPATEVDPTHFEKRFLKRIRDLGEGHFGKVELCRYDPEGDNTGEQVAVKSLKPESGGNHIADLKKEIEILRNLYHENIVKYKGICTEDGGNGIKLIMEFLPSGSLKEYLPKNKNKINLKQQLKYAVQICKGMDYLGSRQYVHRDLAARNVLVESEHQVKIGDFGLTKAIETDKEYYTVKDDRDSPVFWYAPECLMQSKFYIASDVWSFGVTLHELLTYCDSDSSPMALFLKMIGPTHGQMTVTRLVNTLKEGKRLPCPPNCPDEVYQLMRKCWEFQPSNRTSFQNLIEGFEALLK
T2 sequence (O60674 whole entry): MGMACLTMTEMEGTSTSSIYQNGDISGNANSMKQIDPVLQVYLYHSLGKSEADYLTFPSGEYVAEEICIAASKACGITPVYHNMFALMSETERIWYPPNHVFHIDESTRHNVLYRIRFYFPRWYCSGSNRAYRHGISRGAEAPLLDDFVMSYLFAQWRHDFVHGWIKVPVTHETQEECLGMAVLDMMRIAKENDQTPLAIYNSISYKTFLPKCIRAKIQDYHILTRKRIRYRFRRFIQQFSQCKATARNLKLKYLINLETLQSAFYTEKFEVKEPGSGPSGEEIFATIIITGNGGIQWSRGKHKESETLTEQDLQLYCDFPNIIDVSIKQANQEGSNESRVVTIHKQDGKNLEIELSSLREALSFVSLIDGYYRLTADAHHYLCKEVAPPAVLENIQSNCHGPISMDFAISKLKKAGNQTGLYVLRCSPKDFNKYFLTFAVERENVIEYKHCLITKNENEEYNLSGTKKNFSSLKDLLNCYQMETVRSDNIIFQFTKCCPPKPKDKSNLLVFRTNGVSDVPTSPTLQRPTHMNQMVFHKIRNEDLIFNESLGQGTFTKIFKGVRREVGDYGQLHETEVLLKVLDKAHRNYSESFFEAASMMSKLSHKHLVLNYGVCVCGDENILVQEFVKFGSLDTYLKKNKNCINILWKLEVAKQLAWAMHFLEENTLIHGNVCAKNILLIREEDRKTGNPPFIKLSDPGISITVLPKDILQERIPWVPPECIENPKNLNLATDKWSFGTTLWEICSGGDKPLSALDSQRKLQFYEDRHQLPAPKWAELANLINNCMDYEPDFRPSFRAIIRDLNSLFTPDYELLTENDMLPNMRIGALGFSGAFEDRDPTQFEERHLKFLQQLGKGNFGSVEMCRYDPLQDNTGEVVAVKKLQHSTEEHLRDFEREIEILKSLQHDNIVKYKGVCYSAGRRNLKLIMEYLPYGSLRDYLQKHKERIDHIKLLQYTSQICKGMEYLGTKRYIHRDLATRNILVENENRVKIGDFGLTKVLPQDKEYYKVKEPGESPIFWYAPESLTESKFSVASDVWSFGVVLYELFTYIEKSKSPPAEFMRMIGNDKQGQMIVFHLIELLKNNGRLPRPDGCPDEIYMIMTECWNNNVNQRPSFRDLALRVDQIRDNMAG

Turning to `CC(C)N(CCC(c1ccc(-n2cc(-c3ccnc4[nH]cnc34)cn2)nc1)C(F)(F)F)C(C)C` (centres unmarked) [Example 1211, 3-(6-(4-(3H-imidazo[4,5-b]pyridin-7-yl)-1H-pyrazol-1-yl)pyridin-3-yl)-4,4,4-trifluoro-N,N-diisopropylbutan-1-amine], the IC50 at Recombinant JAK1 was less than 0.1 µM; at Recombinant JAK2, greater than 0.1 µM; on Recombinant JAK3 it was greater than 0.1 µM; at Recombinant TYK2, greater than 1 µM.
Consider `OC(c1ccc(-n2cc(-c3ccnc4[nH]cnc34)cn2)nc1)C1CC1` (centres unmarked) [Example 1159, (6-(4-(3H-imidazo[4,5-b]pyridin-7-yl)-1H-pyrazol-1-yl)pyridin-3-yl)(cyclopropyl)methanol], for which the IC50 at Recombinant JAK1 was less than 0.1 µM; on Recombinant JAK2, greater than 0.1 µM; on Recombinant JAK3, less than 0.1 µM; at Recombinant TYK2 it was greater than 1 µM.
Consider `COC(CCS(C)(=O)=O)c1ccc(-n2cc(-c3ccnc4[nH]cnc34)cn2)nc1` (centres unmarked) [Example 1161, 7-(1-(5-(1-methoxy-3-(methylsulfonyl)propyl)pyridin-2-yl)-1H-pyrazol-4-yl)-3H-imidazo[4,5-b]pyridine], for which the IC50 is greater than 1 µM at Recombinant JAK1, greater than 1 µM on Recombinant JAK2, greater than 0.5 µM on Recombinant JAK3 and greater than 1 µM at Recombinant TYK2.
As to `CCOc1nc2c(-c3cnn(C(=O)NCC(F)(F)F)c3)ccnc2[nH]1` [Example 1095, 4-(2-ethoxy-3H-imidazo[4,5-b]pyridin-7-yl)-N-(2,2,2-trifluoroethyl)-1H-pyrazole-1-carboxamide], the IC50 at Recombinant JAK1 was less than 1 µM; at Recombinant JAK2, less than 1 µM; at Recombinant JAK3, less than 1 µM; on Recombinant TYK2 it was greater than 10 µM.
Regarding `O=C(NCC(F)(F)F)c1ccc(-c2ccnc3[nH]c(=O)[nH]c23)cc1` [Example 1001, N-(2,2,2-trifluoroethyl)-4-(2,3-dihydro-2-oxo-1H-imidazo[4,5-b]pyridin-7-yl)benzamide], the IC50 on Recombinant JAK1, at Recombinant JAK2, on Recombinant JAK3 and at Recombinant TYK2 was greater than 10 µM throughout.
Consider `CN1CCC(C(O)c2ccc(-n3cc(-c4ccnc5[nH]cnc45)cn3)nc2)CC1` (centres unmarked) [Example 1165, (6-(4-(3H-imidazo[4,5-b]pyridin-7-yl)-1H-pyrazol-1-yl)pyridin-3-yl)(1-methylpiperidin-4-yl)methanol], for which the IC50 on Recombinant JAK1, on Recombinant JAK2, at Recombinant JAK3 and at Recombinant TYK2 was greater than 1 µM throughout.
For the compound `CC(C)(O)CC(c1ccc(-n2cc(-c3ccnc4[nH]cnc34)cn2)nc1)C(F)(F)F` (centres unmarked) [Example 1193, 4-(6-(4-(3H-imidazo[4,5-b]pyridin-7-yl)-1H-pyrazol-1-yl)pyridin-3-yl)-5,5,5-trifluoro-2-methylpentan-2-ol], the IC50 at Recombinant JAK1 is greater than 0.1 µM; on Recombinant JAK2, greater than 0.5 µM; on Recombinant JAK3, greater than 0.1 µM; at Recombinant TYK2, greater than 1 µM.
On to `N#CCNC(=O)n1cc(-c2ccnc3[nH]c(=O)[nH]c23)cn1` [Example 1035, N-(cyanomethyl)-4-(2,3-dihydro-2-oxo-1H-imidazo[4,5-b]pyridin-7-yl)-1H-pyrazole-1-carboxamide hydrochloride], for which the IC50 on Recombinant JAK1, on Recombinant JAK2, at Recombinant JAK3 and at Recombinant TYK2 was greater than 10 µM in each case.
Consider `O=C(NCC1CCCC1)N1CCN(c2ccnc3[nH]c(=O)[nH]c23)CC1` [Example 1017, N-(cyclopentylmethyl)-4-(2,3-dihydro-2-oxo-1H-imidazo[4,5-b]pyridin-7-yl)piperazine-1-carboxamide], for which the IC50 was greater than 1 µM at Recombinant JAK1, greater than 1 µM at Recombinant JAK2, greater than 10 µM at Recombinant JAK3 and greater than 10 µM at Recombinant TYK2.
With `N#CC1CN(Cc2ccc(-n3cc(-c4ccnc5[nH]cnc45)cn3)nc2)C1` [Example 1087, 1-((6-(4-(3H-imidazo[4,5-b]pyridin-7-yl)-1H-pyrazol-1-yl)pyridin-3-yl)methyl)azetidine-3-carbonitrile], the IC50 at Recombinant JAK1 is greater than 0.5 µM; at Recombinant JAK2, greater than 1 µM; on Recombinant JAK3, greater than 1 µM; at Recombinant TYK2 it was greater than 10 µM.
On to `O=C(NCC(F)(F)F)Nc1ccc(-c2ccnc3[nH]cnc23)cc1` [Example 1010, 1-(4-(3H-imidazo[4,5-b]pyridin-7-yl)phenyl)-3-(2,2,2-trifluoroethyl)urea], for which the IC50 is less than 0.5 µM at Recombinant JAK1, less than 0.5 µM at Recombinant JAK2, greater than 0.5 µM at Recombinant JAK3 and greater than 1 µM at Recombinant TYK2.
Consider `FC(F)(F)C(CCNC1CCCCC1)c1ccc(-n2cc(-c3ccnc4[nH]cnc34)cn2)nc1` (centres unmarked) [Example 1199, N-(3-(6-(4-(3H-imidazo[4,5-b]pyridin-7-yl)-1H-pyrazol-1-yl)pyridin-3-yl)-4,4,4-trifluorobutyl)cyclohexanamine], for which the IC50 was less than 0.1 µM on Recombinant JAK1, greater than 0.1 µM at Recombinant JAK2, less than 0.1 µM on Recombinant JAK3 and greater than 0.5 µM at Recombinant TYK2.
For `N#CCc1ccc(-n2cc(-c3ccnc4[nH]cnc34)cn2)cc1F` [Example 1104, 2-(4-(4-(3H-imidazo[4,5-b]pyridin-7-yl)-1H-pyrazol-1-yl)-2-fluorophenyl)acetonitrile], the IC50 at Recombinant JAK1 was greater than 1 µM; on Recombinant JAK2, less than 0.5 µM; at Recombinant JAK3 it was less than 0.5 µM; at Recombinant TYK2, greater than 1 µM.
For `COCCC(c1ccc(-n2cc(-c3ccnc4[nH]cnc34)cn2)nc1)C(F)(F)F` (centres unmarked) [Example 1155, 7-(1-(5-(1,1,1-trifluoro-4-methoxybutan-2-yl)pyridin-2-yl)-1H-pyrazol-4-yl)-3H-imidazo[4,5-b]pyridine], the IC50 on Recombinant JAK1 was greater than 0.1 µM; on Recombinant JAK2 it was greater than 0.5 µM; at Recombinant JAK3, greater than 0.1 µM; on Recombinant TYK2 it was greater than 1 µM.
On to `CS(=O)(=O)N1CC(C(C#N)c2ccc(-n3cc(-c4ccnc5[nH]cnc45)cn3)nc2)C1` (centres unmarked) [Example 1115, 2-(6-(4-(3H-imidazo[4,5-b]pyridin-7-yl)-1H-pyrazol-1-yl)pyridin-3-yl)-2-(1-(methylsulfonyl)azetidin-3-yl)acetonitrile], for which the IC50 was greater than 0.5 µM on Recombinant JAK1, greater than 0.5 µM on Recombinant JAK2, greater than 0.5 µM on Recombinant JAK3 and greater than 1 µM at Recombinant TYK2.
On to `N#CCC(NC(=O)n1cc(-c2ccnc3[nH]cnc23)cn1)C1CCOCC1` (centres unmarked) [Example 1065, N-(2-cyano-1-(tetrahydro-2H-pyran-4-yl)ethyl)-4-(3H-imidazo[4,5-b]pyridin-7-yl)-1H-pyrazole-1-carboxamide], for which the IC50 was greater than 0.5 µM on Recombinant JAK1, less than 0.5 µM at Recombinant JAK2, greater than 0.5 µM at Recombinant JAK3 and greater than 0.5 µM on Recombinant TYK2.
Regarding `O=C(Cc1ccc(-n2cc(-c3ccnc4[nH]cnc34)cn2)nc1)NCC(F)(F)F` [Example 1092, 2-(6-(4-(3H-imidazo[4,5-b]pyridin-7-yl)-1H-pyrazol-1-yl)pyridin-3-yl)-N-(2,2,2-trifluoroethyl)acetamide], the IC50 at Recombinant JAK1, at Recombinant JAK2, at Recombinant JAK3 and on Recombinant TYK2 was greater than 1 µM in each case.
With `OCc1ccc(-n2cc(-c3ccnc4[nH]cnc34)cn2)nc1` [Example 1083, (6-(4-(3H-imidazo[4,5-b]pyridin-7-yl)-1H-pyrazol-1-yl)pyridin-3-yl)methanol], the IC50 was greater than 0.5 µM on Recombinant JAK1, greater than 0.5 µM at Recombinant JAK2, less than 0.5 µM on Recombinant JAK3 and greater than 1 µM at Recombinant TYK2.
With `O=C(NCC(F)(F)F)Nc1ncc(-c2ccnc3[nH]c(=O)[nH]c23)cn1` [Example 1004, 1-(2,2,2-trifluoroethyl)-3-(5-(2,3-dihydro-2-oxo-1H-imidazo[4,5-b]pyridin-7-yl)pyrimidin-2-yl)urea], the IC50 on Recombinant JAK1, on Recombinant JAK2, at Recombinant JAK3 and on Recombinant TYK2 was greater than 10 µM in each case.
As for `O=C(NCC1CCCC1)n1cc(-c2ccnc3[nH]c(=O)[nH]c23)cn1` [Example 1034, N-(cyclopentylmethyl)-4-(2,3-dihydro-2-oxo-1H-imidazo[4,5-b]pyridin-7-yl)-1H-pyrazole-1-carboxamide], the IC50 on Recombinant JAK1 is greater than 1 µM; on Recombinant JAK2, greater than 1 µM; on Recombinant JAK3 it was greater than 10 µM; at Recombinant TYK2 it was greater than 10 µM.
